Data: patent US11377444B2, “Pyridopyrimidine compounds acting as mTORC 1/2 dual inhibitors” (MEDSHINE DISCOVERY INC., priority 2017, dated 2022)
Where two headings read alike, the source gives them in different places. Each block holds one molecule with its values, some of them ahead of it.

Tests used:
[1] = Pharmacokinetic evaluation in plasma after IV and PO administration; format: in vivo; conditions: female Balb/c mice; for AUC(0-inf) / AUC(0-t) / C0 / clearance / half-life / MRT inf / MRT last / Vd / Cmax / Tmax / bioavailability: mouse; for MRT inf: read-out: MRT0-inf; for MRT last: read-out: MRT0-last; for Vd: read-out: Vdss
Procedure: Experimental Embodiment 3: Pharmacokinetic Evaluation
The test compound was mixed with […] (Cremophor EL), vortexed and sonicated to prepare a 1 mg/mL near-clear solution, which was filtered with a microporous filter membrane for future use. Female Balb/c mice of 18 to 20 grams were selected and the solution of the test compound was administered intravenously at a dose of 1 or 2 mg/kg. The test compound was mixed with an aqueous solution of 1% Tween 80, 9% polyethylene glycol 400, and 90% water, vortexed and sonicated to prepare 1 mg/mL near-clear solution, which was filtered with a microporous filter membrane for future use.
Female Balb/c mice of 18 to 20 grams were selected, and the solution of the test compound was orally administered at a dose of 2 or 10 mg/kg. The whole blood was collected at a certain time, and prepared into plasma. The drug concentration was analyzed by LC-MS/MS, and the pharmacokinetic parameters were calculated using Phoenix WinNonlin software (Pharsight Corporation, USA).

MCF-7 cell = test: Cell proliferation inhibitory activity (Cell-Titer-Glo), MCF-7; format: cell-based; conditions: Homo sapiens, MCF7, 72 h; 3 days incubation
Excerpt: Experimental Embodiment 2: Evaluation of Cell Proliferation Inhibitory Activity
Experiment objective: To detect cell proliferation inhibitory activity of the tested compounds.
Experimental principle: The luciferase in the Cell-Titer-Glo reagent produces oxyluciferin using luciferin, oxygen and ATP as reaction substrates, and releases energy in the form of light. Since the reaction of luciferase requires ATP, the total amount of light generated by the reaction is proportional to the total amount of ATP that reflects cell viability.
Cell lines: MCF-7 cell line […], HT-29 cell line (ATCC-HTB-38), OE21 (ECACC-96062201), NCI-N87 cell line (ATCC-CRL-5822)
Cell culture medium: (RPMI 1640 culture medium (Invitrogen #1868546; 10% serum Invitrogen #1804958; L-glutamine 1×, Invitrogen #1830863; dual antibiotic Hyclone #J170012))
Cell Titer-Glo® Luminescent Cell Viability Assay Kit (Promega #G7573)
The cells were inoculated in a 384- or 96-well plate with a density of 1000 cells per well and 25 μL per well according to the instructions of the cell inoculating plate. The edge wells were not inoculated with cells, and was supplemented with […].
(i) The mother solution of the compound was 10 mM, and diluted with DMSO to an initial concentration of 4 mM. The compound was added to the compound mother solution, 9 μL per well.
(ii) The compound was diluted with ECHO liquid-handling workstation. Each well of the cell plate was added with 125 nL compound. Each well of the cell wells in 2nd column and 23rd column was added with 125 nL DMSO, and each of the PBS wells in 1st column and 24th column was added with 125 nL DMSO.
(iii) Each well of the cell plate was supplemented with 25 μL culture medium, the final volume in each well of the cell plate was 50 μL, […] 3 times dilution, 10 concentrations, each concentration was duplicated in left and right wells, the final DMSO concentration was 0.25%.
2.3. After addition of the compound, centrifugation was performed at 1000 rpm for 1 min, and the cell plate was placed in a 37° C., 5% CO2 incubator for 3 days.
The cell plate was taken out from the incubator and equilibrated at room temperature for 30 minutes. 25 μL Cell-Titer-Glo reagent was added to each well, shaken for one minute to mix thoroughly, centrifuged at 1000 rpm for 1 minute. After 10 minutes, the plate was read on PerkinElmer Envision with a […] reading time was set at 0.2 second.

Tlast ([1]; IV 1 mg/kg): 8.00 h
AUCExtra ([1]; IV 2 mg/kg): 0.384%
AUMCExtra ([1]; IV 2 mg/kg): 2.95%
Tlast ([1]; IV 2 mg/kg): 8.00 h
AUCExtra ([1]; PO 2 mg/kg): 0.0496%
AUMCExtra ([1]; PO 2 mg/kg): 0.347%
Tlast ([1]; PO 2 mg/kg): 12.0 h
AUCExtra ([1]; PO 10 mg/kg): 0.156%
AUMCExtra ([1]; PO 10 mg/kg): 1.82%
Tlast ([1]; PO 10 mg/kg): 24.0 h
AUC(0-inf) ([1]; IV 1 mg/kg): 4.28 µM·h
AUC(0-t) ([1]; IV 1 mg/kg): 4.27 µM·h
C0 ([1]; IV 1 mg/kg): 4.79 µM
clearance ([1]; IV 1 mg/kg): 8.41 mL/min/kg
half-life ([1]; IV 1 mg/kg): 0.967 h
MRT inf ([1]; IV 1 mg/kg): 1.88 h
MRT last ([1]; IV 1 mg/kg): 0.268 h
Vd ([1]; IV 1 mg/kg): 0.677 L/kg
AUC(0-inf) ([1]; IV 2 mg/kg): 8.91 µM·h
AUC(0-t) ([1]; IV 2 mg/kg): 8.88 µM·h
C0 ([1]; IV 2 mg/kg): 8.07 µM
clearance ([1]; IV 2 mg/kg): 8.08 mL/min/kg
half-life ([1]; IV 2 mg/kg): 1.05 h
MRT inf ([1]; IV 2 mg/kg): 1.24 h
MRT last ([1]; IV 2 mg/kg): 1.2 h
Vd ([1]; IV 2 mg/kg): 0.599 L/kg
AUC(0-inf) ([1]; PO 2 mg/kg): 7.24 µM·h
AUC(0-t) ([1]; PO 2 mg/kg): 8.24 µM·h
Cmax ([1]; PO 2 mg/kg): 4.37 µM
Tmax ([1]; PO 2 mg/kg): 0.5 h
bioavailability ([1]; PO 2 mg/kg): 96.2%
half-life ([1]; PO 2 mg/kg): 1.14 h
MRT inf ([1]; PO 2 mg/kg): 1.95 h
MRT last ([1]; PO 2 mg/kg): 1.95 h
AUC(0-inf) ([1]; PO 10 mg/kg): 41.5 µM·h
AUC(0-t) ([1]; PO 10 mg/kg): 41.4 µM·h
Cmax ([1]; PO 10 mg/kg): 17 µM
Tmax ([1]; PO 10 mg/kg): 0.25 h
bioavailability ([1]; PO 10 mg/kg): 93.1%
half-life ([1]; PO 10 mg/kg): 3.46 h
MRT inf ([1]; PO 10 mg/kg): 2.5 h
MRT last ([1]; PO 10 mg/kg): 2.45 h
IC50 (MCF-7 cell): 95 nM
SMILES: CNC(=O)c1cccc(-c2ccc3c(N4CCOC[C@@H]4C)nc(N4CCOC[C@@H]4C)nc3n2)c1 [AZD2014, reference compound]

AUCExtra ([1]; IV 2 mg/kg): 0.0592%
AUMCExtra ([1]; IV 2 mg/kg): 0.616%
Tlast ([1]; IV 2 mg/kg): 12.0 h
AUCExtra ([1]; PO 10 mg/kg): 0.414%
AUMCExtra ([1]; PO 10 mg/kg): 4.62%
Tlast ([1]; PO 10 mg/kg): 24.0 h
AUC(0-inf) ([1]; IV 2 mg/kg): 13.4 µM·h
AUC(0-t) ([1]; IV 2 mg/kg): 13.4 µM·h
C0 ([1]; IV 2 mg/kg): 12.2 µM
clearance ([1]; IV 2 mg/kg): 5.08 mL/min/kg
half-life ([1]; IV 2 mg/kg): 1.47 h
MRT inf ([1]; IV 2 mg/kg): 1.36 h
MRT last ([1]; IV 2 mg/kg): 1.35 h
Vd ([1]; IV 2 mg/kg): 0.414 L/kg
AUC(0-inf) ([1]; PO 10 mg/kg): 60.3 µM·h
AUC(0-t) ([1]; PO 10 mg/kg): 60.1 µM·h
Cmax ([1]; PO 10 mg/kg): 27.9 µM
Tmax ([1]; PO 10 mg/kg): 0.25 h
bioavailability ([1]; PO 10 mg/kg): 89.9%
half-life ([1]; PO 10 mg/kg): 2.61 h
MRT inf ([1]; PO 10 mg/kg): 2.49 h
MRT last ([1]; PO 10 mg/kg): 2.39 h
IC50 (MCF-7 cell): 163 nM
SMILES: CNC(=O)c1cccc(-c2ccc3c(N4CCOC[C@@H]4C)nc(N4CCOC5(CCC5)C4)nc3n2)c1 [Embodiment 23]

AUCExtra ([1]; IV 2 mg/kg): 0.0469%
AUMCExtra ([1]; IV 2 mg/kg): 0.400%
Tlast ([1]; IV 2 mg/kg): 12.0 h
AUCExtra ([1]; PO 10 mg/kg): 0.225%
AUMCExtra ([1]; PO 10 mg/kg): 1.02%
Tlast ([1]; PO 10 mg/kg): 12.0 h
AUC(0-inf) ([1]; IV 2 mg/kg): 9.37 µM·h
AUC(0-t) ([1]; IV 2 mg/kg): 9.73 µM·h
C0 ([1]; IV 2 mg/kg): 8.24 µM
clearance ([1]; IV 2 mg/kg): 7.72 mL/min/kg
half-life ([1]; IV 2 mg/kg): 1.1 h
MRT inf ([1]; IV 2 mg/kg): 1.6 h
MRT last ([1]; IV 2 mg/kg): 1.59 h
Vd ([1]; IV 2 mg/kg): 0.739 L/kg
AUC(0-inf) ([1]; PO 10 mg/kg): 42 µM·h
AUC(0-t) ([1]; PO 10 mg/kg): 41.9 µM·h
Cmax ([1]; PO 10 mg/kg): 12.8 µM
Tmax ([1]; PO 10 mg/kg): 0.25 h
bioavailability ([1]; PO 10 mg/kg): 89.5%
half-life ([1]; PO 10 mg/kg): 1.22 h
MRT inf ([1]; PO 10 mg/kg): 3.04 h
MRT last ([1]; PO 10 mg/kg): 3.02 h
IC50 (MCF-7 cell): 208 nM
SMILES: C[C@H]1COCCN1c1nc(N2CCOC3(CC3)C2)nc2nc(-c3cccc(C(N)=O)c3)ccc12 [Embodiment 51]
